# Test results: patent publication US11453660B2, “Androgen receptor and glucocorticoid receptor modulators” (ONCOSTELLAE, S.L., priority 2017, dated 2022)
# Legend:
# AR-Receptor = biological target: T1, AR-Receptor (Homo sapiens, UniProt P10275); test: Functional Assay AR-Receptor (MDA-MB-453 cells, luciferase); format: cell-based; conditions: antagonist effect in the presence of DHT 1 nM, 24 h, luciferase luminescence, read-out: AR antag KB
# T1 sequence (P10275 1-920 Q868H): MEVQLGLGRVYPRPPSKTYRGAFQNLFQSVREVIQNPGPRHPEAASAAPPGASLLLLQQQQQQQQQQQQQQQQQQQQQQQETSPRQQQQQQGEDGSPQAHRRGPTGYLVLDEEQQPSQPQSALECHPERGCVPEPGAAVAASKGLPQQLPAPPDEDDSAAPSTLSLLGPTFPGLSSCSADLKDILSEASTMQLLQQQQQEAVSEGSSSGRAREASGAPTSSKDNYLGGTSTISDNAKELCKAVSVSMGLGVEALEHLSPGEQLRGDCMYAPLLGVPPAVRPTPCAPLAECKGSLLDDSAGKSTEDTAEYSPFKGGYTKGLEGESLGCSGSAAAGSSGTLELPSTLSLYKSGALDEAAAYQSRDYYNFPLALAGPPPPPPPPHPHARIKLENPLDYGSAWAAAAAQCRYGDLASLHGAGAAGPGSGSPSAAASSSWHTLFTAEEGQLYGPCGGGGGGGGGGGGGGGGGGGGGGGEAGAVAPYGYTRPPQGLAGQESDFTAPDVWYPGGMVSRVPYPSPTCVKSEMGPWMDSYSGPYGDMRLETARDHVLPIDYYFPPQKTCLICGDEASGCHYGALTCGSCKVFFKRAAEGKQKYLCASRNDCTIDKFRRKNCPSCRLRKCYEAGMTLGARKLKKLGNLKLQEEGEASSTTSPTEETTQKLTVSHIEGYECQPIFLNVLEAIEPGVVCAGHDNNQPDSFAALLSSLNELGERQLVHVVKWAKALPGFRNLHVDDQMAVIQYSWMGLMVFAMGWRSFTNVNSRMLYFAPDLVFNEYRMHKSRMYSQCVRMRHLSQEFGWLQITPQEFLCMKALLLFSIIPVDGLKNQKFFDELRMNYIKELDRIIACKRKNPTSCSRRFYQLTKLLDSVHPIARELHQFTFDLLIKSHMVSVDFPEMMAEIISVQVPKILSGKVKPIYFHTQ
# How it was run: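 MDA-MB-453 cells, 8000/well, were switched to medium with 0.1% FBS and exposed to compounds for 24 h at 37 °C. Antagonist mode used 1 nM DHT. After lysis and a freeze-thaw cycle, luciferase luminescence was read.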
# Rat Androgen Receptor = biological target: T2, Rat Androgen Receptor (Rattus norvegicus, UniProt P15207); test: Rat Androgen Receptor Binding (polarscreen AR competitor assay, fluorescence polarization); conditions: displacement of Fluormone AL Green, 4 hours at RT, read-out: AR rat-fluorimetric
# T2 construct: purchased Life Technologies A15880
# T2 sequence (P15207 646-902 limits assumed): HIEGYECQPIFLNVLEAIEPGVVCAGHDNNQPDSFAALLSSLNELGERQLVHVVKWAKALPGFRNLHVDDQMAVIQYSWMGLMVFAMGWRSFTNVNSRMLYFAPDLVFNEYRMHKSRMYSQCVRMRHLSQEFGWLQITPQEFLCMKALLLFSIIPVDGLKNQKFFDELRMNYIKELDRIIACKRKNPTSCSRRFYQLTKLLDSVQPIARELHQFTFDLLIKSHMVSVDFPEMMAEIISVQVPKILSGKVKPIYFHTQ
# How it was run: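 Fluorescence-polarization competition of Fluormone AL Green binding to rat androgen receptor; compounds screened in duplicate at 1 and 10 μM, 4 h at RT, read at λexc 485/λem 535 nm. IC50 from 1:10 dilution series, 10 μM to 0.1 nM, in 1× buffer.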
Structure (SMILES),Kb (AR-Receptor) [nM],IC50 (Rat Androgen Receptor) [nM]
"CC(=O)C1=C(C)NC(C)=C(C(=O)OCc2ccccc2)C1c1csc2ccccc12 (stereo not drawn) [Example B6, Benzyl 5-acetyl-4-(benzo[b]thiophen-3-yl)-2,6-dimethyl-1,4-dihydro-pyridine-3-carboxylate]",100 to 1000,100 to 1000
"CC(=O)C1=C(C)NC(C)=C(C(=O)OCC2CCOCC2)C1c1csc2ccccc12 (stereo not drawn) [Example C2, (Tetrahydro-2H-pyran-4-yl)methyl 5-acetyl-4-(benzo[b]thiophen-3-yl)-2,6-dimethyl-1,4-dihydropyridine-3-carboxylate]",100 to 1000,100 to 1000
"CC(=O)C1=C(C)NC(C)=C(C(=O)OCC2CC2)C1c1csc2ncccc12 (stereo not drawn) [Example C24, Cyclopropylmethyl 5-acetyl-2,6-dimethyl-4-(thieno[2,3-b]pyridin-3-yl)-1,4-dihydropyridine-3-carboxylate]",≥ 1000,< 100
"COC(=O)C1=C(C2CC2)NC(C)=C(C(C)=O)C1c1csc2ncccc12 (stereo not drawn) [Example J23, Methyl 5-acetyl-2-cyclopropyl-6-methyl-4-(thieno[2,3-b]pyridin-3-yl)-1,4-dihydropyridine-3-carboxylate]",≥ 1000,< 100
"COC(=O)C1=C(C2CC2)NC(C)=C(C(C)=O)C1c1csc2c(Br)cccc12 (stereo not drawn) [Example J26, Methyl 5-acetyl-4-(7-bromobenzo[b]thiophen-3-yl)-2-cyclopropyl-6-methyl-1,4-dihydropyridine-3-carboxylate]",100 to 1000,
"CC(=O)C1=C(C)NC(C2CC2)=C(C(=O)OCc2ccncc2)C1c1csc2c(Br)cccc12 (stereo not drawn) [Example J41, Pyridin-4-ylmethyl 5-acetyl-4-(7-bromobenzo[b]thiophen-3-yl)-2-cyclopropyl-6-methyl-1,4-dihydropyridine-3-carboxylate]",100 to 1000,
"CC(=O)C1=C(C)NC(C2CC2)=C(C(=O)OCc2ccc(F)cc2)C1c1csc2ncccc12 (stereo not drawn) [Example J42, 4-fluorobenzyl 5-acetyl-2-cyclopropyl-6-methyl-4-(thieno[2,3-b]pyridin-3-yl)-1,4-dihydropyridine-3-carboxylate]",< 100,

# Second part, the compound after the results:
Kb (AR-Receptor) [nM],IC50 (Rat Androgen Receptor) [nM],Structure (SMILES)
100 to 1000,,"CC(=O)C1=C(C)NC(C)=C(C(=O)OCc2ccc(-c3ccncc3)cc2)C1c1csc2ncccc12 (stereo not drawn) [Example L1, 4-(pyridin-4-yl)benzyl 5-acetyl-2,6-dimethyl-4-(thieno[2,3-b]pyridin-3-yl)-1,4 dihydropyridine-3-carboxylate]"
100 to 1000,,"CC(=O)C1=C(C)NC(C)=C(C(=O)OCc2ccc(-c3cccnc3)cc2)C1c1csc2ncccc12 (stereo not drawn) [Example L2, 4-(pyridin-3-yl)benzyl 5-acetyl-2,6-dimethyl-4-(thieno[2,3-b]pyridin-3-yl)-1,4-dihydropyridine-3-carboxylate]"
100 to 1000,,"CC(=O)C1=C(C)NC(C)=C(C(=O)OCc2cccc(-c3ccncc3)c2)C1c1csc2ncccc12 (stereo not drawn) [Example L3, 3-(pyridin-4-yl)benzyl 5-acetyl-2,6-dimethyl-4-(thieno[2,3-b]pyridin-3-yl)-1,4-dihydropyridine-3-carboxylate]"
100 to 1000,,"CC(=O)C1=C(C)NC(C)=C(C(=O)OCc2cccc(-c3cccnc3)c2)C1c1csc2ncccc12 (stereo not drawn) [Example L4, 3-(pyridin-3-yl)benzyl 5-acetyl-2,6-dimethyl-4-(thieno[2,3-b]pyridin-3-yl)-1,4-dihydropyridine-3-carboxylate]"
